In US11464802B2, “3-substituted piperidine compounds for Cbl-b inhibition, and use thereof” (Nurix Therapeutics, Inc., priority 2019, dated 2022) one finds IC50 and fold induction data, which are given here for 10 molecules.

Each structure is given as a SMILES string. Read-outs that look alike come from different tables or passages of the source. Where only a bound is given, the exact number is not on record here.

One test concerns the target Cbl-b (Homo sapiens (Human), UniProt Q13191). As to the kind of experiment: Cbl-b displacement assay (Cbl-b inhibition assay), TR-FRET probe displacement, Biological Example 1. Format: binding. The protocol:
Candidate compounds were evaluated for their ability to bind and inhibit Cbl-b, an E3 ubiquitin-protein ligase, as evidenced by their ability to displace a fluorophore-labeled probe (Example 46) bound to Cbl-b.
The ability of candidate compounds to displace a known inhibitor and thereby inhibit Cbl-b activity was measured by monitoring the interaction of Cbl-b with a fluorophore-labeled probe in the presence of the candidate compound. A truncated variant of Cbl-b (UniProt number Q13191; SEQ ID NO:1) containing an Avitag at its N-terminus was co-expressed with BirA biotin ligase and purified using a standard protocol (see Dou et al., Nature Structural and Molecular Biology 8: 982-987, 2013; Avidity LLC).
Fluorescently-labeled inhibitor probe was synthesized and tagged with BODIPY FL (Example 46). Cbl-b displacement assays were performed in a 384-well plate at room temperature in a 10 μL reaction volume by pre-incubating 0.5 nM Cbl-b or 0.125 nM Cbl-b (final concentration, indicated as “High” and “Low”, respectively) in an assay buffer containing 20 mM HEPES pH 7.5, 150 mM NaCl, 0.01% Triton X-100, 0.01% BSA, and 0.5 mM TCEP in the presence of a candidate compound in 1% DMSO (final concentration) for 1 hour. After incubation in the presence of the candidate compound, the plate was incubated for an additional 1 hour in the presence of an approximate EC40 binding saturation consisting of 150 nM fluorescently-labeled inhibitor probe and 2 nM Streptavidin-Terbium (Cisbio) (final concentrations). Following the 1 hour incubation, the plates were read for TR-FRET signal at 520/620 nM using an Envision plate reader (Perkin Elmer).
On the technique in general: In TR-FRET formats the signal depends on donor and acceptor labels being close together.

Test [1] concerns primary human total T-cells. Put plainly: Primary human total T-cell activation: IL-2 secretion, Biological Example 2. Format: cell-based. The note with it: 48 hours, fold change over baseline; for fold induction at 0.3 µM: inhibitor 0.3 μM; for fold induction at 1 µM: inhibitor 1 μM; for fold induction at 3 µM: inhibitor 3 μM.
Test [2] concerns primary human total T-cells. Put plainly: Primary human total T-cell activation: CD25 surface staining, Biological Example 2. The note with it: 48 hours, fold change over baseline; for fold induction at 0.3 µM: inhibitor 0.3 μM; for fold induction at 1 µM: inhibitor 1 μM; for fold induction at 3 µM: inhibitor 3 μM. Format: cell-based.
[3] abbreviates: Cbl-b concentration (High or Low) not given, read-out: IC50 values in the Cbl-b inhibition assay of Biological Example 1.
Where [4] appears, read: anti-CD3/anti-CD28 co-stimulation.
Where [5] appears, read: anti-CD3/anti-CD28 co-stimulation, read-out: IL-2 secretion CD3/CD28 1 μM.
The mark [6] stands for this setting: anti-CD3 alone, read-out: IL-2 secretion CD3 1 μM.
Where [7] appears, read: anti-CD3/anti-CD28 co-stimulation, read-out: CD25 staining CD3/CD28 1 μM.
[8] abbreviates: anti-CD3 alone, read-out: CD25 staining CD3 1 μM.
[9] abbreviates: 0.5 nM Cbl-b final concentration (High), read-out: Cbl-b activity IC50 (High).

Cbl-b, sequence (Q13191 36-427): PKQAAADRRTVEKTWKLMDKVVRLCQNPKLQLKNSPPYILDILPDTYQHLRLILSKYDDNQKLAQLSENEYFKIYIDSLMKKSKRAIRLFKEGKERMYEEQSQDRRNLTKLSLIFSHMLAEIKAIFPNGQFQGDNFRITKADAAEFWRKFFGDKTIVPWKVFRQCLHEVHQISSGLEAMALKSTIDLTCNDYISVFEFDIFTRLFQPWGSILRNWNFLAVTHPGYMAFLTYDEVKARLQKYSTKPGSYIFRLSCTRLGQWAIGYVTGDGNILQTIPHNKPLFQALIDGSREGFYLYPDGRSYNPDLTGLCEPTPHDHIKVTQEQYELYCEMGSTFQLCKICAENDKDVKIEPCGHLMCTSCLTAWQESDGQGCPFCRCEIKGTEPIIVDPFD

By IC50 is commonly meant the concentration needed to halve the response being measured. For `Cn1cnnc1CC1(c2cccc(N3Cc4c(cc(CN5CCCC(CC#N)C5)cc4C(F)(F)F)C3=O)c2)COC1` (stereo not shown) [Compound 4, 2-(1-((2-(3-(3-((4-methyl-4H-1,2,4-triazol-3-yl)methyl)oxetan-3-yl)phenyl)-3-oxo-7-(trifluoromethyl)isoindolin-5-yl)methyl)piperidin-3-yl)acetonitrile], the IC50 at Cbl-b (0.125 nM Cbl-b final concentration (Low), read-out: Cbl-b activity IC50 (Low)) was 1 to 5 nM; on Cbl-b (setting [3]), 1 to 5 nM. Further, the fold induction at 0.3 µM in test [1] (setting [4]) is more than 15; in test [2] (setting [4]), more than 1.39. Also, the fold induction at 1 µM in test [1] (setting [5]) is more than 15; in test [1] (setting [6]), 0.34 to 0.66; in test [2] (setting [7]), more than 1.39; in test [2] (setting [8]), more than 1.14. Besides, the fold induction at 3 µM in test [1] (anti-CD3 alone) was 0.34 to 0.66; in test [2] (anti-CD3 alone) it was more than 1.14.

Take `Cn1cnnc1CC1(c2cccc(N3Cc4c(cc(CN5CCCC6(CC6)C5)cc4C(F)(F)F)C3=O)c2)COC1` [Compound 7, 6-((5-azaspiro[2.5]octan-5-yl)methyl)-2-(3-(3-((4-methyl-4H-1,2,4-triazol-3-yl)methyl)oxetan-3-yl)phenyl)-4-(trifluoromethyl)isoindolin-1-one]: the 50% inhibitory concentration (IC50) on Cbl-b (setting [9]) fell in the range of 5.1 to 100 nM. Besides, the figures for the fold induction at 0.3 µM in test [1] (setting [4]) and in test [2] (setting [4]) were 11 to 15 and more than 1.39, respectively. The fold induction at 1 µM in test [1] (setting [5]) was 11 to 15; in test [1] (setting [6]), less than 0.33; in test [2] (setting [7]) it was more than 1.39; in test [2] (setting [8]) it was more than 1.14. The fold induction at 3 µM in test [1] (anti-CD3 alone) is 0.34 to 0.66; in test [2] (anti-CD3 alone), more than 1.14.

For the molecule `C[C@H]1CN(Cc2cc3c(c(C(F)(F)F)c2)CN(c2cccc(C4(Cc5nncn5C)COC4)c2)C3=O)CCC1(F)F` [Compound 9, (S)-6-((4,4-difluoro-3-methylpiperidin-1-yl)methyl)-2-(3-(3-((4-methyl-4H-1,2,4-triazol-3-yl)methyl)oxetan-3-yl)phenyl)-4-(trifluoromethyl)isoindolin-1-one], the concentration for half-maximal inhibition (IC50) at Cbl-b (setting [9]) is 5.1 to 100 nM. Also, the fold induction at 0.3 µM lay within 11 to 15 in test [1] (setting [4]) and 1.25 to 1.39 in test [2] (setting [4]). In addition, the fold induction at 1 µM in test [1] (setting [5]) was more than 15; in test [1] (setting [6]), 0.34 to 0.66; in test [2] (setting [7]) it was more than 1.39; in test [2] (setting [8]), more than 1.14. Moreover, the values for the fold induction at 3 µM in test [1] (anti-CD3 alone) and in test [2] (anti-CD3 alone) were 0.34 to 0.66 and more than 1.14, respectively.

As for `Cn1cnnc1CC1(c2cccc(N3Cc4c(cc(CN5CCC(F)(F)[C@@H](C#N)C5)cc4C(F)(F)F)C3=O)c2)COC1` [Compound 10, (R)-4,4-difluoro-1-((2-(3-(3-((4-methyl-4H-1,2,4-triazol-3-yl)methyl)oxetan-3-yl)phenyl)-3-oxo-7-(trifluoromethyl)isoindolin-5-yl)methyl)piperidine-3-carbonitrile], the half-maximal inhibitory concentration (IC50) at Cbl-b (setting [9]) and at Cbl-b (setting [3]) was less than 1 nM each time. In addition, the fold induction at 0.3 µM in test [1] (setting [4]) fell in the range of 11 to 15; in test [2] (setting [4]), 1.25 to 1.39. Also, the fold induction at 1 µM in test [1] (setting [5]) was 11 to 15; in test [1] (setting [6]) it was less than 0.33; in test [2] (setting [7]), 1.25 to 1.39; in test [2] (setting [8]), 1.05 to 1.14. Besides, the fold induction at 3 µM is less than 0.33 in test [1] (anti-CD3 alone) and 1.05 to 1.14 in test [2] (anti-CD3 alone).

For `Cn1cnnc1CC1(c2cccc(N3Cc4c(cc(CN5CCC(F)(F)[C@H](C#N)C5)cc4C(F)(F)F)C3=O)c2)COC1` [Compound 11, (S)-4,4-difluoro-1-((2-(3-(3-((4-methyl-4H-1,2,4-triazol-3-yl)methyl)oxetan-3-yl)phenyl)-3-oxo-7-(trifluoromethyl)isoindolin-5-yl)methyl)piperidine-3-carbonitrile], the IC50 on Cbl-b (setting [9]) and on Cbl-b (setting [3]) was 1 to 5 nM in each case. The fold induction at 0.3 µM in test [1] (setting [4]) is less than 10; in test [2] (setting [4]) it was 1.25 to 1.39. For the same molecule, the fold induction at 1 µM was 11 to 15 in test [1] (setting [5]), less than 0.33 in test [1] (setting [6]), 1.25 to 1.39 in test [2] (setting [7]) and less than 1.04 in test [2] (setting [8]). Further, the fold induction at 3 µM in test [1] (anti-CD3 alone) was less than 0.33; in test [2] (anti-CD3 alone), less than 1.04.

For the molecule `Cn1cnnc1CC1(c2cccc(N3Cc4c(cc(CN5CCCC6(COC6)C5)cc4C(F)(F)F)C3=O)c2)COC1` [Compound 12, 6-((2-oxa-6-azaspiro[3.5]nonan-6-yl)methyl)-2-(3-(3-((4-methyl-4H-1,2,4-triazol-3-yl)methyl)oxetan-3-yl)phenyl)-4-(trifluoromethyl)isoindolin-1-one], the IC50 on Cbl-b (setting [9]) and at Cbl-b (setting [3]) was 5.1 to 100 nM each time. The fold induction at 0.3 µM in test [1] (setting [4]) is less than 10; in test [2] (setting [4]), 1.25 to 1.39. Also, the fold induction at 1 µM in test [1] (setting [5]) was 11 to 15; in test [1] (setting [6]), less than 0.33; in test [2] (setting [7]), 1.25 to 1.39; in test [2] (setting [8]), less than 1.04. Moreover, the figures for the fold induction at 3 µM in test [1] (anti-CD3 alone) and in test [2] (anti-CD3 alone) were less than 0.33 and 1.05 to 1.14, respectively.

Regarding `Cn1cnnc1CC1(c2cccc(N3Cc4c(cc(CN5CCC(F)(F)[C@]6(CCOC6)C5)cc4C(F)(F)F)C3=O)c2)COC1` [Compound 13, (R)-6-((10,10-difluoro-2-oxa-7-azaspiro[4.5]decan-7-yl)methyl)-2-(3-(3-((4-methyl-4H-1,2,4-triazol-3-yl)methyl)oxetan-3-yl)phenyl)-4-(trifluoromethyl)isoindolin-1-one], the concentration for half-maximal inhibition (IC50) on Cbl-b (setting [9]) fell in the range of 1 to 5 nM. Further, the figures for the fold induction at 0.3 µM in test [1] (setting [4]) and in test [2] (setting [4]) were 11 to 15 and less than 1.24, respectively. Besides, the fold induction at 1 µM in test [1] (setting [5]) is 11 to 15; in test [1] (setting [6]), 0.34 to 0.66; in test [2] (setting [7]), less than 1.24; in test [2] (setting [8]) it was 1.05 to 1.14. The results for the fold induction at 3 µM in test [1] (anti-CD3 alone) and in test [2] (anti-CD3 alone) were 0.34 to 0.66 and less than 1.04, respectively.

For `Cn1cnnc1CC1(c2cccc(N3Cc4c(cc(CN5CCC(F)(F)[C@@]6(CCOC6)C5)cc4C(F)(F)F)C3=O)c2)COC1` [Compound 14, (S)-6-((10,10-difluoro-2-oxa-7-azaspiro[4.5]decan-7-yl)methyl)-2-(3-(3-((4-methyl-4H-1,2,4-triazol-3-yl)methyl)oxetan-3-yl)phenyl)-4-(trifluoromethyl)isoindolin-1-one], the half-inhibitory concentration (IC50) at Cbl-b (setting [9]) lay in the range of 1 to 5 nM. The fold induction at 0.3 µM in test [1] (setting [4]) was less than 10; in test [2] (setting [4]) it was less than 1.24. In addition, the fold induction at 1 µM in test [1] (setting [5]) was 11 to 15; in test [1] (setting [6]) it was 0.34 to 0.66; in test [2] (setting [7]) it was less than 1.24; in test [2] (setting [8]), 1.05 to 1.14. For the same molecule, the results for the fold induction at 3 µM in test [1] (anti-CD3 alone) and in test [2] (anti-CD3 alone) were 0.34 to 0.66 and less than 1.04, respectively.

Consider `Cn1cnnc1CC1(c2cccc(N3Cc4c(cc(CN5CCC(F)(F)[C@H](CO)C5)cc4C(F)(F)F)C3=O)c2)COC1` [Compound 15, (S)-6-((4,4-difluoro-3-(hydroxymethyl)piperidin-1-yl)methyl)-2-(3-(3-((4-methyl-4H-1,2,4-triazol-3-yl)methyl)oxetan-3-yl)phenyl)-4-(trifluoromethyl)isoindolin-1-one], for which the IC50 on Cbl-b (setting [9]) was 1 to 5 nM. Besides, the fold induction at 0.3 µM in test [1] (setting [4]) is less than 10; in test [2] (setting [4]), less than 1.24. The fold induction at 1 µM in test [1] (setting [5]) is 11 to 15; in test [1] (setting [6]), less than 0.33; in test [2] (setting [7]), less than 1.24; in test [2] (setting [8]), 1.05 to 1.14. For the same molecule, the fold induction at 3 µM in test [1] (anti-CD3 alone) is 0.34 to 0.66; in test [2] (anti-CD3 alone) it was 1.05 to 1.14.

For `Cn1cnnc1CC1(c2cccc(N3Cc4c(cc(CN5CCC(F)(F)[C@@H](CO)C5)cc4C(F)(F)F)C3=O)c2)COC1` [Compound 16, (R)-6-((4,4-difluoro-3-(hydroxymethyl)piperidin-1-yl)methyl)-2-(3-(3-((4-methyl-4H-1,2,4-triazol-3-yl)methyl)oxetan-3-yl)phenyl)-4-(trifluoromethyl)isoindolin-1-one], the IC50 on Cbl-b (setting [9]) lay within 1 to 5 nM. The fold induction at 0.3 µM is less than 10 in test [1] (setting [4]) and less than 1.24 in test [2] (setting [4]). The fold induction at 1 µM is less than 10 in test [1] (setting [5]), less than 0.33 in test [1] (setting [6]), less than 1.24 in test [2] (setting [7]) and less than 1.04 in test [2] (setting [8]). Moreover, the fold induction at 3 µM was less than 0.33 in test [1] (anti-CD3 alone) and 1.05 to 1.14 in test [2] (anti-CD3 alone).
